The results in this text go back to ChEMBL document CHEMBL4311998, “Design, synthesis and biological evaluation of curcumin analogues as novel LSD1 inhibitors” (Bioorg Med Chem Lett, 2019).

Molecules are shown by their SMILES.

Broadly, the IC50 is the midpoint of a concentration-inhibition curve.

One experiment relates to A549. Put plainly: Antiproliferative activity against human A549 cells overexpressing LSD1 assessed as reduction in cell viability measured after 72 hrs by MTT assay. The settings on record: A549, 72 h. On the technique in general: Formazan colour is commonly taken as a measure of viable cells.
The subject of the next experiment is U-87 MG. Put plainly: Antiproliferative activity against human U87MG cells assessed as reduction in cell viability measured after 72 hrs by MTT assay.
Experiment [1] deals with Lysine-specific histone demethylase 1A (Homo sapiens, UniProt O60341). Put plainly: Inhibition of human recombinant LSD1 using fluorogenic ADHP as substrate preincubated for 30 mins followed by substrate addition measured after 10 mins by fluorescence assay.
Experiment [2] addresses T1, Amine oxidase [flavin-containing] A (Homo sapiens, UniProt P21397).
T1 sequence (P21397 whole entry): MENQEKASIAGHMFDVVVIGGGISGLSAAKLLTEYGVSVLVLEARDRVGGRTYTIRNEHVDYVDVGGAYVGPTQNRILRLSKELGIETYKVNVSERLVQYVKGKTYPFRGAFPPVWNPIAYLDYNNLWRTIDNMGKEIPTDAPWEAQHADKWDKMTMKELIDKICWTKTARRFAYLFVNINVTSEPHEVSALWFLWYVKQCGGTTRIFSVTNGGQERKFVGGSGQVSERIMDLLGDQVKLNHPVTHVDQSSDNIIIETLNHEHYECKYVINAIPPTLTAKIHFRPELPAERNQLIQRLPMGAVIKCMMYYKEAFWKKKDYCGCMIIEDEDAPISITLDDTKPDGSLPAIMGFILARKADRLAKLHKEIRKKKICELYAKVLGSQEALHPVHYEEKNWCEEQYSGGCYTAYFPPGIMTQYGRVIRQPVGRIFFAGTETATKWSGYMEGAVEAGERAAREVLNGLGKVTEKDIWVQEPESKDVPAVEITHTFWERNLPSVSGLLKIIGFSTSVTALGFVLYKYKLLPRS
Put plainly: Inhibition of human recombinant MAO-A expressed in baculovirus infected BTI cells using luciferin derived luminogenic substrate measured after 20 mins by luminescence assay.

Experiment [3] has as its target T2, Amine oxidase [flavin-containing] B (Homo sapiens, UniProt P27338).
T2 sequence (P27338 whole entry): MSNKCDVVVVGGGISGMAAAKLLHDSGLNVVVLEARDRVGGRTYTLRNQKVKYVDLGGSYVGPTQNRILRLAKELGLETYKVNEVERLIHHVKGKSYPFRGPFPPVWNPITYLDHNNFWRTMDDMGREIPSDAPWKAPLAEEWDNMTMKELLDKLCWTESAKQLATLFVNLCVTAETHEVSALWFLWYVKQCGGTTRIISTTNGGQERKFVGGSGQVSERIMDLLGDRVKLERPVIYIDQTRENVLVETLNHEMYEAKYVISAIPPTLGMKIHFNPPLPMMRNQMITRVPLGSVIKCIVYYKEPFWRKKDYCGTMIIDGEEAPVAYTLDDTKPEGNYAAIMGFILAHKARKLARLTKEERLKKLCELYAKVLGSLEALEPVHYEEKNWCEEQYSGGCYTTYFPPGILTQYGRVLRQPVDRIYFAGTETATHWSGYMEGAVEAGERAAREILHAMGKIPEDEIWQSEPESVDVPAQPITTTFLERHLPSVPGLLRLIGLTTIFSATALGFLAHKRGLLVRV
Put plainly: Inhibition of human recombinant MAO-B expressed in baculovirus infected BTI cells using luciferin derived luminogenic substrate measured after 20 mins by luminescence assay.

Consider `COc1cc(/C=C/C(=O)Nc2ccc(N)cc2)ccc1O`, for which the IC50 in the experiment with A549 and in the experiment on U-87 MG was > 50 µM each time. With `COc1cc(/C=C/C(=O)Nc2ccc(CC(=O)NN)cc2)ccc1O`, the 50% inhibitory concentration (IC50) was 30.3 µM in the experiment with A549 and 49.3 µM in the experiment with U-87 MG. On the same counts, the results for `COc1cc(/C=C/C(=O)Nc2cccc(COc3ccc(OC4CCNCC4)cc3)c2)ccc1O` are 28.5 µM and > 50 µM. In the case of `Cc1ccc(-c2cc(/C=C/C(=O)Nc3cccc(OCC4CCNCC4)c3)ccc2O)cc1`, the 50% inhibitory concentration (IC50) in experiment [1] was > 50 µM. As for `COc1cc(/C=C/C(=O)Nc2ccc(NC(=N)N)cc2)ccc1O`, the IC50 with A549 and in the experiment on U-87 MG was > 50 µM throughout. Turning to `COc1cc(/C=C/C(=O)Nc2ccccc2COc2ccc(OC3CCNCC3)cc2)ccc1O`, the IC50 in the experiment with A549 was 4.42 µM; in the experiment with U-87 MG, 14.2 µM; in experiment [2], > 50 µM; in experiment [3] it was > 50 µM. `COc1ccc(/C=C/C(=O)Nc2cccc(OCC3CCNCC3)c2)cc1OC`: the concentration for half-maximal inhibition (IC50) in experiment [1] is > 50 µM. On the same count and under the same terms, the figure for `O=C(/C=C/c1cccc(C(F)(F)F)c1)Nc1cccc(OCC2CCNCC2)c1` is > 50 µM.

As to `COc1cc(/C=C/C(=O)CC(=O)/C=C/c2ccc(O)c(OC)c2)ccc1O` [CURCUMIN], the IC50 in experiment [1] turned out to be 9.6 µM.

On to `COc1cc(/C=C/C(=O)Nc2cccc(OCC3CCNCC3)c2)ccc1O`, for which the IC50 in the experiment with A549 amounted to 24.5 µM; in the experiment on U-87 MG, 31 µM.

With `O=C(/C=C/c1ccc(F)cc1)Nc1cccc(OCC2CCNCC2)c1`, in experiment [1], the half-maximal inhibitory concentration (IC50) is > 50 µM. As for `COc1cc(/C=C/C(=O)Nc2ccc(C(=O)NO)cc2)ccc1O`, the half-inhibitory concentration (IC50) is 32.5 µM in the experiment with A549 and > 50 µM in the experiment with U-87 MG.

Consider `N#Cc1ccc(/C=C/C(=O)Nc2cccc(OCC3CCNCC3)c2)cc1`, for which the IC50 in experiment [1] was > 50 µM.

In the case of `O=C(/C=C/c1ccc(O)cc1)Nc1cccc(OCC2CCNCC2)c1`, the IC50 was 9.33 µM in the experiment on A549, > 50 µM in the experiment with U-87 MG, > 50 µM in experiment [2] and > 50 µM in experiment [3]. Consider `COc1cc(/C=C/C(=O)Nc2cccc(OCC3CCNCC3)c2)cc(OC)c1OC`, for which the IC50 in experiment [1] is > 50 µM.

Take `COC(=O)Cc1ccc(NC(=O)/C=C/c2ccc(OC(C)=O)c(OC)c2)cc1`: the IC50 in experiment [1] was > 50 µM.
